27 compounds from patent US20240059703A1 (AMGEN INC., priority 2021, published 2024) can be followed below.

Molecules are shown by their SMILES.

Chain of KRAS G12C (P01116 other isoform, or with tags, fused parts or gaps G12C/C118A): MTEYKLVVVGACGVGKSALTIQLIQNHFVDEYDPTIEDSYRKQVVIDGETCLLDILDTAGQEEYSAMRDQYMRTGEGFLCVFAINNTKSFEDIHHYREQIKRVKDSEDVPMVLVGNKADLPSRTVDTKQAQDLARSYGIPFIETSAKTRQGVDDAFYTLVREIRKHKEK

One assay addresses KRAS G12C (Homo sapiens (Human), UniProt P01116, C118A/G12C). Nature of the assay: 2 h coupled exchange assay. It counts as biochemical. As to conditions: Avg 2 h Coupled exchange IC50, 2 h compound pre-incubation. How it is done: The term “2 h coupled exchange assay” or “20 h coupled exchange assay” as used herein refers to the assay described in the Section entitled “BIOLOGICAL EVALUATION.”
In the case of `C=CC(=O)N1CC2(CCN(c3nc4c(c(-c5cccc6cc[nH]c56)c3C#N)C[C@H]3C[C@@H]4C3(C)C)C2)C1` [Example 14-22, (1R,9R)-6-(1H-indol-7-yl)-10,10-dimethyl-4-(2-(2-propenoyl)-2,6-diazaspiro[3.4]octan-6-yl)-3-azatricyclo[7.1.1.0^2,7]undeca-2,4,6-triene-5-carbonitrile], it took 606 nM to reach half-maximal inhibition (IC50). Same read-out and setting: for `C=CC(=O)N1CC2(CCN(c3nc4c(c(-c5cccc6c5cnn6C)c3C#N)C[C@H]3C[C@@H]4C3(C)C)C2)C1` [Example 14-24, (1R,9R)-10,10-dimethyl-6-(1-methyl-1H-indazol-4-yl)-4-(2-(2-propenoyl)-2,6-diazaspiro[3.4]octan-6-yl)-3-azatricyclo[7.1.1.0^2,7]undeca-2,4,6-triene-5-carbonitrile] the value was 506 nM; for `C=CC(=O)N1CC2(CCN(c3nc4c(c(-c5ccc(F)c6sc(N)nc56)c3C)COC(C)(C)C4)C2)C1` [Example 14-27, 1-(6-(4-(2-amino-7-fluoro-1,3-benzothiazol-4-yl)-3,7,7-trimethyl-7,8-dihydro-5H-pyrano[4,3-b]pyridin-2-yl)-2,6-diazaspiro[3.4]octan-2-yl)-2-propen-1-one], 164 nM; for `C=CC(=O)N1CC2(CCN(c3nc4c(c(-c5cc(O)ccc5C)c3C)COC(C)(C)C4)C2)C1` [Example 14-30, 1-(6-(4-(5-hydroxy-2-methylphenyl)-3,7,7-trimethyl-7,8-dihydro-5H-pyrano[4,3-b]pyridin-2-yl)-2,6-diazaspiro[3.4]octan-2-yl)-2-propen-1-one], 215 nM. On the same count and under the same terms, for `[2H]C([2H])([2H])n1ncc2ccc(C)c(-c3c(C)c(N4CCC5(CN(C(=O)C=C)C5)C4)nc4c3COC(C)(C)C4)c21` [Example 14-36, 1-(6-(3,7,7-trimethyl-4-(6-methyl-1-(^2H3)methyl-1H-indazol-7-yl)-7,8-dihydro-5H-pyrano[4,3-b]pyridin-2-yl)-2,6-diazaspiro[3.4]octan-2-yl)-2-propen-1-one] the value was 226 nM. On the same count and under the same terms, for `C=CC(=O)N1CC2(CCN(c3nc4c(c(-c5c(C)ccc6cnn(C)c56)c3C)COC(C)(C)C4)C2)C1` [Example 14-37, 1-(6-(4-(1,6-dimethyl-1H-indazol-7-yl)-3,7,7-trimethyl-7,8-dihydro-5H-pyrano[4,3-b]pyridin-2-yl)-2,6-diazaspiro[3.4]octan-2-yl)-2-propen-1-one] the value was 478 nM. For `C=CC(=O)N1CC2(CCN(c3nc4c(c(-c5ccc(F)c(O)c5)c3C#N)C[C@H]3C[C@@H]4C3(C)C)C2)C1` [Example 14-49, (1R,9R)-6-(4-fluoro-3-hydroxyphenyl)-10,10-dimethyl-4-(2-(2-propenoyl)-2,6-diazaspiro[3.4]octan-6-yl)-3-azatricyclo[7.1.1.0^2,7]undeca-2,4,6-triene-5-carbonitrile], the IC50 worked out at 776 nM. Same read-out and setting: for `C=CC(=O)N1CC2(CCN(c3nc4c(c(-c5cc(O)ccc5C)c3F)COC(C)(C)C4)C2)C1` [Example 14-53, 1-(6-(3-fluoro-4-(5-hydroxy-2-methylphenyl)-7,7-dimethyl-7,8-dihydro-5H-pyrano[4,3-b]pyridin-2-yl)-2,6-diazaspiro[3.4]octan-2-yl)-2-propen-1-one] the value was 360 nM; for `C=CC(=O)N1CC2(CCN(c3nc4c(c(-c5c(C)ccc6cn[nH]c56)c3F)COC(C)(C)C4)C2)C1` [Example 14-54, 1-(6-(3-fluoro-7,7-dimethyl-4-(6-methyl-1H-indazol-7-yl)-7,8-dihydro-5H-pyrano[4,3-b]pyridin-2-yl)-2,6-diazaspiro[3.4]octan-2-yl)-2-propen-1-one], 349 nM; for `C=CC(=O)N1CC2(CCN(c3nc4c(c(-c5c(C)c(Cl)cc6cnn(C)c56)c3F)COC(C)(C)C4)C2)C1` [Example 14-55, 1-(6-(4-(5-chloro-1,6-dimethyl-1H-indazol-7-yl)-3-fluoro-7,7-dimethyl-7,8-dihydro-5H-pyrano[4,3-b]pyridin-2-yl)-2,6-diazaspiro[3.4]octan-2-yl)-2-propen-1-one], 209 nM. The same measure, in the same setting: for `C=CC(=O)N1CC2(CCN(c3nc4c(c(-c5cccc6cc(O)ccc56)c3F)COC(C)(C)C4)C2)C1` [Example 14-65, 1-(6-(3-fluoro-4-(6-hydroxy-1-naphthalenyl)-7,7-dimethyl-7,8-dihydro-5H-pyrano[4,3-b]pyridin-2-yl)-2,6-diazaspiro[3.4]octan-2-yl)-2-propen-1-one] the value was 367 nM; for `C=CC(=O)N1CC2(CCN(c3nc4c(c(-c5c(C)ccc6cnn(C)c56)c3F)COC(C)(C)C4)C2)C1` [Example 14-71, 1-(6-(4-(1,6-dimethyl-1H-indazol-7-yl)-3-fluoro-7,7-dimethyl-7,8-dihydro-5H-pyrano[4,3-b]pyridin-2-yl)-2,6-diazaspiro[3.4]octan-2-yl)-2-propen-1-one], 781 nM. Same read-out and setting: for `C=CC(=O)N1CC2(CCN(c3nc4c(c(-c5c(C)ccc6cnn(C(F)F)c56)c3C#N)COC(C)(C)C4)C2)C1` [Example 14-83, 4-(1-(difluoromethyl)-6-methyl-1H-indazol-7-yl)-7,7-dimethyl-2-(2-(2-propenoyl)-2,6-diazaspiro[3.4]octan-6-yl)-7,8-dihydro-5H-pyrano[4,3-b]pyridine-3-carbonitrile] the value was 432 nM.

As to `C=CC(=O)N1CC2(CCN(c3nc4c(c(-c5c(C)c(Cl)cc6cn[nH]c56)c3F)COC(C)(C)C4)C2)C1` [Example 14-85], half-maximal inhibition (IC50) required 56 nM. In turn, `C=CC(=O)N1CC2(CCN(c3nc4ccccc4c(-c4c(C)c(Cl)cc5cnn(C)c45)c3C#N)C2)C1` [Example 14-90, 4-(5-chloro-1,6-dimethyl-1H-indazol-7-yl)-2-(2-(2-propenoyl)-2,6-diazaspiro[3.4]octan-6-yl)-3-quinolinecarbonitrile] had an IC50 of 148 nM. Against the preceding compound, the IC50 is about 2.6-fold higher. On the same count and under the same terms, to `C=CC(=O)N1CC2(CCN(c3nc4c(c(-c5ccc(F)c6sc(N)c(C#N)c56)c3C)COC(C)(C)C4)C2)C1` [Example 14-106, 2-amino-7-fluoro-4-(3,7,7-trimethyl-2-(2-(2-propenoyl)-2,6-diazaspiro[3.4]octan-6-yl)-7,8-dihydro-5H-pyrano[4,3-b]pyridin-4-yl)-1-benzothiophene-3-carbonitrile] belongs 46 nM; to `C=CC(=O)N1CC2(CCN(c3nc4cc(-c5scnc5C)ccc4c(-c4ccccc4Cl)c3C)C2)C1` [Example 15-2, 1-(6-(4-(2-chlorophenyl)-3-methyl-7-(4-methyl-1,3-thiazol-5-yl)-2-quinolinyl)-2,6-diazaspiro[3.4]octan-2-yl)-2-propen-1-one], 478 nM. Same read-out and setting: for `C=CC(=O)N1CC2(CCN(c3nc4cc(-n5ccnc5C)ccc4c(-c4ccccc4Cl)c3C)C2)C1` [Example 15-4, 1-(6-(4-(2-chlorophenyl)-3-methyl-7-(2-methyl-1H-imidazol-1-yl)-2-quinolinyl)-2,6-diazaspiro[3.4]octan-2-yl)-2-propen-1-one] the value was 280 nM. The same measure, in the same setting: for `C=CC(=O)N1CC2(CCN(c3nc4cc(-c5cc(C)nn5C)ccc4c(-c4ccccc4Cl)c3C)C2)C1` [Example 16-2, 1-(6-(4-(2-chlorophenyl)-7-(1,3-dimethyl-1H-pyrazol-5-yl)-3-methyl-2-quinolinyl)-2,6-diazaspiro[3.4]octan-2-yl)-2-propen-1-one] the value was 648 nM. Compound `C=CC(=O)N1CC2(CCN(c3nc4cc(-c5ccnn5C)ccc4c(-c4ccc(F)cc4)c3C)C2)C1` [Example 16-3, 1-(6-(4-(4-fluorophenyl)-3-methyl-7-(1-methyl-1H-pyrazol-5-yl)-2-quinolinyl)-2,6-diazaspiro[3.4]octan-2-yl)-2-propen-1-one] displayed an IC50 of 519 nM. Still for that read-out and setting: for `C=CC(=O)N1CC2(CCN(c3nc4cc(-c5ccnn5C)ccc4c(-c4ccccc4F)c3C)C2)C1` [Example 16-4, 1-(6-(4-(2-fluorophenyl)-3-methyl-7-(1-methyl-1H-pyrazol-5-yl)-2-quinolinyl)-2,6-diazaspiro[3,4]octan-2-yl)-2-propen-1-one] the value was 644 nM. `C=CC(=O)N1CC2(CCN(c3nc4cc(-c5ccnn5C)ccc4c(-c4c(O)cccc4Cl)c3C)C2)C1` [Example 16-5, 1-(6-(4-(2-chloro-6-hydroxyphenyl)-3-methyl-7-(1-methyl-1H-pyrazol-5-yl)-2-quinolinyl)-2,6-diazaspiro[3.4]octan-2-yl)-2-propen-1-one] registered an IC50 of 390 nM. The same measure, in the same setting: to `C=CC(=O)N1CC2(CCN(c3nc4cc(-c5ccnn5C)ccc4c(-c4ccc(F)cc4F)c3C)C2)C1` [Example 16-6, 1-(6-(4-(2,4-difluorophenyl)-3-methyl-7-(1-methyl-1H-pyrazol-5-yl)-2-quinolinyl)-2,6-diazaspiro[3.4]octan-2-yl)-2-propen-1-one] belongs 708 nM. On the same count and under the same terms, to `C=CC(=O)N1CC2(CCN(c3nc4cc(-c5ccnn5C)ccc4c(-c4cccc(F)c4Cl)c3C)C2)C1` [Example 16-7, 1-(6-(4-(2-chloro-3-fluorophenyl)-3-methyl-7-(1-methyl-1H-pyrazol-5-yl)-2-quinolinyl)-2,6-diazaspiro[3.4]octan-2-yl)-2-propen-1-one] belongs 716 nM; to `C=CC(=O)N1CC2(CCN(c3nc4cc(-c5ccnn5C)ccc4c(-c4c(C)cccc4F)c3C)C2)C1` [Example 16-8, 1-(6-(4-(2-fluoro-6-methylphenyl)-3-methyl-7-(1-methyl-1H-pyrazol-5-yl)-2-quinolinyl)-2,6-diazaspiro[3.4]octan-2-yl)-2-propen-1-one], 702 nM. `C=CC(=O)N1CC2(CCN(c3nc4cc(-c5ccnn5C)ccc4c(-c4c(O)cccc4F)c3C)C2)C1` [Example 16-10, 1-(6-(4-(2-fluoro-6-hydroxyphenyl)-3-methyl-7-(1-methyl-1H-pyrazol-5-yl)-2-quinolinyl)-2,6-diazaspiro[3,4]octan-2-yl)-2-propen-1-one] gave an IC50 of 260 nM.

Still in this assay, the particulars now being: Avg 2 h Coupled exchange IC50, 2 h compound pre-incubation, SOS-mediated nucleotide exchange.
As to `C=CC(=O)N1CC2(CCN(c3nc4ccccc4c(-c4c(C)ccc5[nH]nc(Cl)c45)c3C#N)C2)C1` [Example 14-3, 4-(3-chloro-5-methyl-1H-indazol-4-yl)-2-(2-(2-propenoyl)-2,6-diazaspiro[3.4]octan-6-yl)-3-quinolinecarbonitrile], the IC50 was found to be 588 nM.

As a reminder, the IC50 is the concentration needed to halve the response being measured. Read a high IC50 as weaker potency in that assay.
